{"source": "paper PMC3666759", "about": "“ATP Dependent Rotational Motion of Group II Chaperonin Observed by X-ray Single Molecule Tracking” (PLoS ONE, 2013)", "target": "T1, TKS1-Cpn (group II chaperonin from Thermococcus strain KS-1) (Thermococcus sp. JCM 11816, UniProt P61112, D263C/C366S)", "T1 construct": "gene thsA; full-length recombinant chaperonin, purified to homogeneity, double-ring homo-oligomer", "T1 sequence (P61112 whole entry D263C/C366S)": "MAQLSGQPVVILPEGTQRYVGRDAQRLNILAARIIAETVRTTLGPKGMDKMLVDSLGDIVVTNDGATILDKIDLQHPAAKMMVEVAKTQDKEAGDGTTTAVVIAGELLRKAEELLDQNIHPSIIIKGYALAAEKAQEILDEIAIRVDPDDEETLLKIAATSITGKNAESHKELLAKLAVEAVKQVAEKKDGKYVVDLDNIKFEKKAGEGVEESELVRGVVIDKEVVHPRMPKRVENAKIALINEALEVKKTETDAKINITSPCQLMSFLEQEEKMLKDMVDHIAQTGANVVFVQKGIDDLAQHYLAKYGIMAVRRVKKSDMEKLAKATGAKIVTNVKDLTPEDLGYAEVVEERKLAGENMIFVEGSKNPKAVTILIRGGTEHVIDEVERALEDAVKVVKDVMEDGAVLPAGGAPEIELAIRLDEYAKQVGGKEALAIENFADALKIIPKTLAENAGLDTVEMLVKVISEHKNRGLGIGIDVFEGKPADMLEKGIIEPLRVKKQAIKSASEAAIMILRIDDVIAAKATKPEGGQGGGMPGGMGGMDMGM", "assay": "diffracted X-ray tracking (DXT), single molecule", "type": "binding", "settings": "2 mM ATP; MOPS pH 7.0, 100 mM KCl, 5 mM MgCl2, about 60 °C; immobilised on gold, gold nanocrystal label"}
{"smiles": "Nc1ncnc2c1ncn2[C@@H]1O[C@H](COP(=O)(O)OP(=O)(O)OP(=O)(O)O)[C@@H](O)[C@H]1O", "note": "[ATP]", "values": [{"measurement": "diffracted X-ray tracking (DXT), single molecule", "value": "Angular displacement in the χ direction was clearly activated by the addition of ATP."}]}
